# Test results as given in ChEMBL document CHEMBL3217754, “Nitro-based inhibitors against thermolysin” (Medchemcomm, 2011).
# Target: T1, Thermolysin (Bacillus thermoproteolyticus, UniProt P00800)
# T1 sequence (P00800 whole entry): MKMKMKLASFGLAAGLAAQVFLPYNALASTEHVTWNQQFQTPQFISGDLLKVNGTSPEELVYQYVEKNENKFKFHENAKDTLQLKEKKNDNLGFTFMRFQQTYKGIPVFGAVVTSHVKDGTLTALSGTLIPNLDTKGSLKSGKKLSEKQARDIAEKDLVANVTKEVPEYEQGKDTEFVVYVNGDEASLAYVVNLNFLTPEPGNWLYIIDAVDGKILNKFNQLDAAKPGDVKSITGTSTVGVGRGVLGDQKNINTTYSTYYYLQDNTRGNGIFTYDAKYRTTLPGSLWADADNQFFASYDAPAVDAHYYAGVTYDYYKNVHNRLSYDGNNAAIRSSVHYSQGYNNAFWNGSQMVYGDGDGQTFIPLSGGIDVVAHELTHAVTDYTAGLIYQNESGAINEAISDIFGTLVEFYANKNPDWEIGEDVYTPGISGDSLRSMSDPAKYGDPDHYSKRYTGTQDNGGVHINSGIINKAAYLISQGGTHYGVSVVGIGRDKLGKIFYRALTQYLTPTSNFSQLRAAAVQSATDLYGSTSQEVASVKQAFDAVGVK
# Test: Competitive inhibition of Bacillus thermoproteolyticus thermolysin using N-[3-(2-furyl)acryloyl]Gly-L-Leu-NH2 as substrate by Dixon plot analysis
row,Structure (SMILES),Ki
1,NC(=O)[C@H](Cc1ccccc1)C[N+](=O)[O-],7600 nM
2,NC(=O)[C@@H](Cc1ccccc1)C[N+](=O)[O-],663000 nM
3,COC(=O)[C@H](Cc1ccccc1)NC(=O)[C@@H](Cc1ccccc1)C[N+](=O)[O-],79000 nM
4,COC(=O)[C@@H](Cc1ccccc1)NC(=O)[C@@H](Cc1ccccc1)C[N+](=O)[O-],86000 nM
5,COC(=O)[C@H](Cc1ccccc1)NC(=O)[C@@H](CC(C)C)C[N+](=O)[O-],7200 nM
6,NC(=O)C(Cc1ccccc1)C[N+](=O)[O-] (racemic),36000 nM

# Compounds with a lower Ki, results first:
row,Ki,Structure (SMILES)
1,950 nM,COC(=O)[C@H](Cc1ccccc1)NC(=O)[C@H](Cc1ccccc1)C[N+](=O)[O-]
2,1400 nM,COC(=O)[C@@H](Cc1ccccc1)NC(=O)[C@H](Cc1ccccc1)C[N+](=O)[O-]
3,840 nM,COC(=O)[C@H](Cc1ccccc1)NC(=O)[C@H](CC(C)C)C[N+](=O)[O-]
4,370 nM,COC(=O)[C@H](CC(C)C)NC(=O)[C@H](Cc1ccccc1)C[N+](=O)[O-]
5,2400 nM,COC(=O)[C@H](CC(C)C)NC(=O)[C@@H](Cc1ccccc1)C[N+](=O)[O-]
6,83 nM,COC(=O)[C@H](CC(C)C)NC(=O)[C@H](CC(C)C)C[N+](=O)[O-]
7,770 nM,COC(=O)[C@H](CC(C)C)NC(=O)[C@@H](CC(C)C)C[N+](=O)[O-]
